Measurements: patent publication US20250205259A1, “CLASS OF 7-((FIVE-MEMBERED HETEROCYCLIC)METHYL)-8-CARBOXYLIC ACID-BENZO CYCLIC BORATE DERIVATIVES AND USES THEREOF” (priority 2022, published 2025)
Like-named read-outs stand apart in the source and are kept apart here.

How the values were obtained:
[1] = molecular target: NDM-1 (Klebsiella pneumoniae, UniProt C7C422); assay: Inhibitory activity on MBL, fluorescent substrate FC-5; type: biochemical
[2] = molecular target: NDM-5 (Klebsiella pneumoniae, UniProt C7C422, M154L/V88L); assay: as above; type: biochemical
[3] = molecular target: IMP-1 (Serratia marcescens, UniProt P52699); assay: as above; type: biochemical
[4] = molecular target: VIM-1 (Pseudomonas aeruginosa, UniProt A0A0F7KYQ8); assay: as above; type: biochemical
[5] = molecular target: VIM-2 (Escherichia coli, UniProt Q5U7L7); assay: as above; type: biochemical; conditions: read-out: Inhibitory activity on MBL VIM-2 (IC50 class)
[6] = molecular target: KPC-2 (Klebsiella pneumoniae, UniProt Q9F663); assay: Inhibitory activity on SBL, fluorescent substrate FC-5; type: biochemical; conditions: for IC50: read-out: Inhibitory activity on SBL KPC-2 (IC50 class)
[7] = molecular target: TEM-1 (Escherichia coli, UniProt P62593); assay: as above; type: biochemical; conditions: for IC50: read-out: Inhibitory activity on SBL TEM-1 (IC50 class)
[8] = molecular target: CTX-M-14 (Escherichia coli, UniProt Q9L5C7); assay: as above; type: biochemical; conditions: for IC50: read-out: Inhibitory activity on SBL CTX-M-14 (IC50 class)
[9] = molecular target: OXA-48 (Klebsiella pneumoniae, UniProt Q6XEC0); assay: as above; type: biochemical; conditions: for IC50: read-out: Inhibitory activity on SBL OXA-48 (IC50 class)
[10] = molecular target: AmpC (UniProt P24735); assay: as above; conditions: read-out: Inhibitory activity on SBL AmpC (IC50 class)
[11] = molecular target: T1, SHV-12 (UniProt P0AD64, L31Q/G234S/E235K, species not given); assay: as above; type: biochemical; conditions: read-out: Inhibitory activity on SBL SHV-12 (IC50 class)
T1 sequence (P0AD64 1-286 L31Q/G234S/E235K): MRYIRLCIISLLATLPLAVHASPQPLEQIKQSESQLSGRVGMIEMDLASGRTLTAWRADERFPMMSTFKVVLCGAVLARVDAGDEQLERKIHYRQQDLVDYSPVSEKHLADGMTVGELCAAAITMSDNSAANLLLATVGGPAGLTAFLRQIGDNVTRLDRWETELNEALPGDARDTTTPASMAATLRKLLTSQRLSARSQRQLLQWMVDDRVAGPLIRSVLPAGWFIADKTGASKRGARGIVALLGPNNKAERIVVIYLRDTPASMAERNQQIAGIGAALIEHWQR

[12] = read-out: Inhibitory activity on MBL NDM-1 (IC50 class)
[13] = read-out: inhibitory activity at a nanomolar-level on NDM-1
[14] = read-out: Inhibitory activity on MBL NDM-5 (IC50 class)
[15] = read-out: inhibitory activity at a nanomolar-level on NDM-5
[16] = read-out: Inhibitory activity on MBL IMP-1 (IC50 class)
[17] = VIM-1 and/or VIM-2, read-out: inhibitory activity at a nanomolar-level on VIM-1 and/or VIM-2
[18] = read-out: Inhibitory activity on MBL VIM-1 (IC50 class)
[19] = IMP-1 and/or IMP-4, read-out: inhibitory activity at a nanomolar-level on IMP-1 and/or IMP-4

Sequence of TEM-1 (P62593 24-286 limits assumed): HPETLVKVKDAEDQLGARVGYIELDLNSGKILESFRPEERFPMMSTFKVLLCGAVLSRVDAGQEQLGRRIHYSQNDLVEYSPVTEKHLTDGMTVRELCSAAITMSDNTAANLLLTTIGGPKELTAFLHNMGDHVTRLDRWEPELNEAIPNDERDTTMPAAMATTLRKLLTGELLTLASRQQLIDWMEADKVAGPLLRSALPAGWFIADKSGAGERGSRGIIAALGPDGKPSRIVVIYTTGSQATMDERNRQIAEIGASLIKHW
Sequence of NDM-5 (C7C422 29-270 V88L/M154L): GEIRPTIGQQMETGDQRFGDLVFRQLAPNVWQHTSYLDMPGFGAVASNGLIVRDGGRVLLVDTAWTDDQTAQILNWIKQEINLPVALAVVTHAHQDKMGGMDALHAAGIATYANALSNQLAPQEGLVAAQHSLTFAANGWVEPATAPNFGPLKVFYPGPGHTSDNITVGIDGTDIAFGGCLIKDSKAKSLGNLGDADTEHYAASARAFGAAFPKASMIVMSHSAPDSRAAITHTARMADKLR
Sequence of CTX-M-14 (Q9L5C7 entry or part of it): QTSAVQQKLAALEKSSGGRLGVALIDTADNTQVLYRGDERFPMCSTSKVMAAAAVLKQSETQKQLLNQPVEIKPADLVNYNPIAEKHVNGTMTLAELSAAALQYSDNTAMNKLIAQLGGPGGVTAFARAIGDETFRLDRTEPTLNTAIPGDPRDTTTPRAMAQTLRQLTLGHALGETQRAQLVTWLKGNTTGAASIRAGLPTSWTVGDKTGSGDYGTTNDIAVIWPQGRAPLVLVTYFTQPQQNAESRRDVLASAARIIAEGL
Sequence of NDM-1 (C7C422 29-270 limits assumed): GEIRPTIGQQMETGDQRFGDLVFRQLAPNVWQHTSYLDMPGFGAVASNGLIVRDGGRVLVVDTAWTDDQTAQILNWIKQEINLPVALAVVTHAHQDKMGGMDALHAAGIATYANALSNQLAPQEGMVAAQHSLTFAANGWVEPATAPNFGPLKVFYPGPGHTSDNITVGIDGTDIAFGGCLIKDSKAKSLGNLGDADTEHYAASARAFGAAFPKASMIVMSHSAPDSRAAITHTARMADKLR
Sequence of OXA-48 (Q6XEC0 23-265 limits assumed): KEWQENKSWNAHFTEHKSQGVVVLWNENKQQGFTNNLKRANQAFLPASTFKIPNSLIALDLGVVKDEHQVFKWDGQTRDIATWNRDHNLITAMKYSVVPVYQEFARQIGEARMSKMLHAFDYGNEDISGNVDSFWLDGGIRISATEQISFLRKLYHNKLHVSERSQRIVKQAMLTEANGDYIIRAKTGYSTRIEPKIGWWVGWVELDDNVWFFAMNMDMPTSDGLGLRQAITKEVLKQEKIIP
Sequence of KPC-2 (Q9F663 25-293 limits assumed): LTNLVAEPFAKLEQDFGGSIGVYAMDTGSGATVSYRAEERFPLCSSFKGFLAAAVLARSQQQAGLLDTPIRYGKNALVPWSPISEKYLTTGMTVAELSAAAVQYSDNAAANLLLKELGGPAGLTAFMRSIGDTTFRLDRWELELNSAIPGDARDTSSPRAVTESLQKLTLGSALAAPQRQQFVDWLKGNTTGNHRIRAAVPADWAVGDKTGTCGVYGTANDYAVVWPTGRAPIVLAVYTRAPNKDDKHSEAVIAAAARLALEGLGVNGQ
Sequence of IMP-1 (P52699 19-246 limits assumed): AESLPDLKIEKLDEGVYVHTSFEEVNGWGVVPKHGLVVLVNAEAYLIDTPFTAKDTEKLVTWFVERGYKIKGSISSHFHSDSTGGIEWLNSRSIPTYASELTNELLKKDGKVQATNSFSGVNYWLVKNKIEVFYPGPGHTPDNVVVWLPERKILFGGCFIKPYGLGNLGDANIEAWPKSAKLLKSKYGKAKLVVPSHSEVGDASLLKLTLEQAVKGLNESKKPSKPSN

Compound	IC50 [1, 12] [nM]	IC50 [1, 13] [nM]	IC50 [2, 14] [nM]	IC50 [2, 15] [nM]	IC50 [3, 16] [nM]	IC50 [4, 17] [nM]	IC50 [4, 18] [nM]	IC50 [5] [nM]	IC50 [6] [nM]	IC50 [7] [nM]	IC50 [8] [nM]	IC50 [9] [nM]	IC50 [10] [nM]	IC50 [3, 19] [nM]	IC50 [11] [nM]	inhibitory activity on KPC-2 compared to avibactam ([6]; comparison in words)	inhibitory activity on TEM-1 compared to avibactam ([7]; comparison in words)	inhibitory activity on CTX-M-14 compared to avibactam ([8]; comparison in words)	inhibitory activity on OXA-48 compared to avibactam ([9]; comparison in words)
O=C(O)c1c(Cn2cc(-c3ccccc3)nn2)ccc2c1OB(O)CC2 [Compound 12]	10 to 1000	< 1000	10 to 1000	< 1000	1000 to 100000	< 1000	1000 to 100000	10 to 1000	< 10	10 to 1000	10 to 1000	< 10	> 100000	–	–	–	–	–	–
N=C(N)NCCc1cn(Cc2ccc3c(c2C(=O)O)OB(O)CC3)nn1 [Compound 10]	10 to 1000	< 1000	10 to 1000	< 1000	1000 to 100000	< 1000	1000 to 100000	10 to 1000	< 10	10 to 1000	10 to 1000	< 10	> 100000	–	–	–	–	–	–
N=C(N)N1Cc2cnn(Cc3ccc4c(c3C(=O)O)OB(O)CC4)c2C1 [Compound 67]	10 to 1000	–	1000 to 100000	–	1000 to 100000	–	1000 to 100000	10 to 1000	< 10	10 to 1000	10 to 1000	< 10	> 100000	–	–	–	–	–	–
NCCc1ccc(-c2cn(Cc3ccc4c(c3C(=O)O)OB(O)CC4)nn2)cc1 [Compound 65]	–	–	–	–	–	–	–	–	< 10	–	–	–	1000 to 100000	–	–	–	–	–	–
O=C(O)c1c(Cn2ccc3cncnc32)ccc2c1OB(O)CC2 [Compound 55]	10 to 1000	< 1000	10 to 1000	< 1000	10 to 1000	–	1000 to 100000	10 to 1000	< 10	< 10	< 10	10 to 1000	1000 to 100000	< 1000	–	–	–	–	–
NC1CCC(c2cn(Cc3ccc4c(c3C(=O)O)OB(O)CC4)nn2)CC1 (stereo not drawn) [Compound 11]	10 to 1000	< 1000	10 to 1000	< 1000	1000 to 100000	< 1000	1000 to 100000	10 to 1000	< 10	10 to 1000	10 to 1000	< 10	> 100000	–	–	–	–	–	–
N=C(N)NCCc1cnn(Cc2ccc3c(c2C(=O)O)OB(O)CC3)c1 [Compound 50]	1000 to 100000	–	10 to 1000	–	1000 to 100000	–	1000 to 100000	1000 to 100000	< 10	10 to 1000	10 to 1000	10 to 1000	–	–	10 to 1000	–	–	–	–
NCc1ccn(Cc2ccc3c(c2C(=O)O)OB(O)CC3)n1 [Compound 42]	10 to 1000	< 1000	10 to 1000	< 1000	1000 to 100000	< 1000	10 to 1000	10 to 1000	< 10	< 10	10 to 1000	10 to 1000	–	–	10 to 1000	–	–	–	–
N=C(N)N1CC(c2cn(Cc3ccc4c(c3C(=O)O)OB(O)CC4)nn2)C1 [Compound 49]	10 to 1000	< 1000	10 to 1000	< 1000	10 to 1000	–	1000 to 100000	10 to 1000	< 10	10 to 1000	10 to 1000	10 to 1000	1000 to 100000	< 1000	–	–	–	–	–
O=C(O)c1c(Cn2cc3c(n2)CNC3)ccc2c1OB(O)[C@H]1C[C@@H]21 [Compound 54]	10 to 1000	< 1000	10 to 1000	< 1000	1000 to 100000	–	1000 to 100000	10 to 1000	10 to 1000	1000 to 100000	10 to 1000	10 to 1000	–	–	10 to 1000	–	–	–	–
O=C(O)c1c(Cn2cc([N+](=O)[O-])cn2)ccc2c1OB(O)CC2 [Compound 31]	10 to 1000	< 1000	10 to 1000	< 1000	1000 to 100000	–	1000 to 100000	10 to 1000	< 10	10 to 1000	10 to 1000	< 10	–	–	10 to 1000	–	–	–	–
O=C(O)c1c(CN2C[C@H](O)CC2=O)ccc2c1OB(O)CC2 [Compound 44]	10 to 1000	< 1000	10 to 1000	< 1000	1000 to 100000	< 1000	10 to 1000	10 to 1000	10 to 1000	10 to 1000	10 to 1000	10 to 1000	–	–	10 to 1000	–	–	–	–
NCCCc1cn(Cc2ccc3c(c2C(=O)O)OB(O)CC3)nn1 [Compound 9]	1000 to 100000	–	10 to 1000	–	1000 to 100000	< 1000	1000 to 100000	10 to 1000	< 10	10 to 1000	10 to 1000	< 10	> 100000	–	–	–	–	–	–
O=C(O)c1c(Cn2ncc3ccccc32)ccc2c1OB(O)CC2 [Compound 22]	10 to 1000	< 1000	10 to 1000	< 1000	10 to 1000	< 1000	10 to 1000	10 to 1000	< 10	10 to 1000	10 to 1000	< 10	1000 to 100000	< 1000	–	–	–	–	–
Nc1cnn(Cc2ccc3c(c2C(=O)O)OB(O)CC3)c1 [Compound 32]	10 to 1000	< 1000	10 to 1000	< 1000	1000 to 100000	–	1000 to 100000	10 to 1000	< 10	10 to 1000	< 10	< 10	–	–	10 to 1000	–	–	–	–
N=C(N)NCCCc1cn(Cc2ccc3c(c2C(=O)O)OB(O)CC3)nn1 [Compound 48]	1000 to 100000	–	10 to 1000	–	1000 to 100000	–	1000 to 100000	10 to 1000	< 10	10 to 1000	10 to 1000	10 to 1000	–	–	10 to 1000	–	–	–	–
O=C(O)c1c(Cn2ccnn2)ccc2c1OB(O)CC2 [Compound 2]	10 to 1000	< 1000	10 to 1000	< 1000	1000 to 100000	< 1000	1000 to 100000	10 to 1000	< 10	10 to 1000	10 to 1000	10 to 1000	–	–	10 to 1000	–	–	–	–
N#Cc1ccn(Cc2ccc3c(c2C(=O)O)OB(O)CC3)n1 [Compound 18]	10 to 1000	< 1000	10 to 1000	< 1000	1000 to 100000	< 1000	1000 to 100000	10 to 1000	< 10	< 10	10 to 1000	< 10	–	–	10 to 1000	better or comparable	better or comparable	better or comparable	better or comparable
O=C(O)c1c(Cn2cc(CN3CCCC3)nn2)ccc2c1OB(O)CC2 [Compound 5]	1000 to 100000	–	10 to 1000	–	1000 to 100000	< 1000	1000 to 100000	10 to 1000	< 10	10 to 1000	10 to 1000	10 to 1000	–	–	10 to 1000	–	–	–	–
